Measured values as given in PubChem BioAssay AID1228 (The Scripps Research Institute Molecular Screening Center, 2008).
Active and inactive are the calls of the source.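 How the source made its calls: active means EC50 at or below 10 µM; inactive means EC50 above 10 µM.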

Test system: CHO NFAT-BLA reporter, FRET beta-lactamase activation counterscreen
Assay: NFAT-BLA reporter activators, potency curves, dose response, counter-screen for GALR2 agonist project, CHO NFAT-bla cells, FRET readout (AID 1228)

SMILES	EC50
C=CCNC(=O)/C(C#N)=C/c1cn(-c2ccccc2)nc1-c1cccs1	> 55.7 µM (inactive)
Cc1c2ccncc2c(C)c2c1[nH]c1ccccc12	> 55.7 µM (inactive)
CCCOc1ccc(C(=O)C(CCC(CNCC)C(=O)c2ccc(OCCC)cc2)CNCC)cc1 (stereo unspecified)	> 55.7 µM (inactive)
COc1cc2c3cc1Oc1cc(ccc1O)C[C@@H]1c4c(cc(OC)c(O)c4Oc4ccc(cc4)C[C@H]3N(C)CC2)CCN1C	> 55.7 µM (inactive)
Cc1cc(C)c2nc(NNC(=O)c3ccc(S(=O)(=O)N4CCCC(C)C4)cc3)sc2c1 (stereo unspecified)	> 55.7 µM (inactive)
CC1=C/C(=N\OS(=O)(=O)c2ccccc2)C(C(C)C)=CC1=O	> 55.7 µM (inactive)
Cc1cccc2sc(NNC(=O)c3ccc(S(=O)(=O)N4CCCC(C)C4)cc3)nc12 (stereo unspecified)	> 55.7 µM (inactive)
Cc1ccc2nsnc2c1NC(=O)c1ccc(-c2cc(Cl)ccc2Cl)o1	> 55.7 µM (inactive)
Cc1cccc2sc(NNC(=O)c3ccc(S(=O)(=O)N4CC(C)CC(C)C4)cc3)nc12 (stereo unspecified)	> 55.7 µM (inactive)
CCOc1ccc(Br)cc1C(=O)Nc1ccc(C(=O)NCC(C)C)cc1	> 55.7 µM (inactive)
Cc1cc(C)c2nc(NNC(=O)c3ccc(S(=O)(=O)N4CC(C)CC(C)C4)cc3)sc2c1 (stereo unspecified)	> 55.7 µM (inactive)
